The values that follow come from the supplement of paper PMC11208160.
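Note: IS621 recombinase and bridge RNA in Escherichia coli cells.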

The nature of the data set: recombinant barcode read abundance after kanamycin selection (control-corrected) (log10(CPM+1)); higher = more efficient recombination; sequences stand for … in AGTGCAGAGAAAATCGGCCAGTTTTCTCTGCCTGCAGTCCGCATGCCGT…AGATTTATGCAGCGGACTGCCTTTCTCCCAAAGTGATAAACCGGACAGTATCATGGACCGGTTTTCCCGGTAATCCGTATTTGCAAGGTTGGTTTCACT; site = the 11-nt target. An outline of the steps:
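Values are log10(CPM+1) from a pooled E. coli screen of targets paired with IS621 bridge RNA target-binding loops. Recombination efficiency here means counts per million of recombinant-junction barcodes, averaged and control-corrected. Plates were chloramphenicol/ampicillin LB agar for the control and chloramphenicol/ampicillin/kanamycin with 0.1 mM IPTG, two replicates each.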
For the sequence “ATAGGGACTTGGGTTCTAACCTGTTGCTA (site ATAAGGACTTA)”, the “recombinant barcode read abundance (log10)” value stood at 1.97. The value for “ATAGGGACTTGGGTTCTAACCTGTTGCTA (site ATACGGACTTA)” was 0.291.

Turning to “ATAGGGACTTGGGTTCTAACCTGTTGCTA (site ATAGGGACTTA)”, the “recombinant barcode read abundance (log10)” value came to 2.91.

Take “ATAGGGACTTGGGTTCTAACCTGTTGCTA (site ATATGGACTTA)”: the “recombinant barcode read abundance (log10)” value amounted to 0.759.

For the sequence “ATAGTCCCTTGGGTTCTAACCTGTTGCCT (site ATAGTCCCTAG)”, the “recombinant barcode read abundance (log10)” value turned out to be 2.25. In the case of “ATAGTCCCTTGGGTTCTAACCTGTTGCCT (site ATGGTCCCTAG)”, the “recombinant barcode read abundance (log10)” value came to 0.644.

As for “ATAGTTACTTGGGTTCTAACCTGTTGCCT (site ATAGTTACTAG)”, the “recombinant barcode read abundance (log10)” value worked out at 1.73. On to “ATAGTTACTTGGGTTCTAACCTGTTGCCT (site ATGATTACTAG)”, for which the “recombinant barcode read abundance (log10)” value was 0.129. Take “ATATACGCTTGGGTTCTAACCTGTTGCCT (site ATATACGCTAG)”: the “recombinant barcode read abundance (log10)” value came out at 1.84.

Regarding “ATATACGCTTGGGTTCTAACCTGTTGCCT (site CTATAGGCTAG)”, the “recombinant barcode read abundance (log10)” value was determined as 0.0578. As for “ATATCGTCTTGGGTTCTAACCTGTTGCCT (site ATATCGTCTAG)”, the “recombinant barcode read abundance (log10)” value was found to be 1.61.

As for “ATATCGTCTTGGGTTCTAACCTGTTGCCT (site CTATCGTCTAG)”, the “recombinant barcode read abundance (log10)” value was determined as 0.0269. Regarding “ATATGCGCTTGGGTTCTAACCTGTTGCCG (site ATATGAGCTCG)”, the “recombinant barcode read abundance (log10)” value is 0.108.

For the sequence “ATATGCGCTTGGGTTCTAACCTGTTGCCG (site ATATGCGCTCG)”, the “recombinant barcode read abundance (log10)” value turned out to be 1.43.

For the sequence “ATATGCGCTTGGGTTCTAACCTGTTGCCG (site ATATGGGCTCG)”, the “recombinant barcode read abundance (log10)” value was 0.0781.

Take “ATATGCGCTTGGGTTCTAACCTGTTGCCG (site ATATGTGCTCG)”: the “recombinant barcode read abundance (log10)” value was determined as 0.262. As to “ATATGTACTTGGGTTCTAACCTGTTGCAG (site ATACGGACTCT)”, the “recombinant barcode read abundance (log10)” value is 0. For “ATATGTACTTGGGTTCTAACCTGTTGCAG (site ATATGTACTCT)”, the “recombinant barcode read abundance (log10)” value is 2.1. “ATATGTGCTTGGGTTCTAACCTGTTGCCG (site ATATGAGCTCG)”: the “recombinant barcode read abundance (log10)” value came out at 0.0211. Turning to “ATATGTGCTTGGGTTCTAACCTGTTGCCG (site ATATGCGCTCG)”, the “recombinant barcode read abundance (log10)” value was 0.0242. The value for “ATATGTGCTTGGGTTCTAACCTGTTGCCG (site ATATGGGCTCG)” was 0.108. Regarding “ATATGTGCTTGGGTTCTAACCTGTTGCCG (site ATATGTGCTCG)”, the “recombinant barcode read abundance (log10)” value stood at 1.71. For “ATCAAGACTTGGGTTCTAACCTGTTGCCT (site ATAAAGACTAG)”, the “recombinant barcode read abundance (log10)” value was 0.266. As for “ATCAAGACTTGGGTTCTAACCTGTTGCCT (site ATCAAGACTAG)”, the “recombinant barcode read abundance (log10)” value came out at 1.42. Regarding “ATCAAGACTTGGGTTCTAACCTGTTGCCT (site ATGAAGACTAG)”, the “recombinant barcode read abundance (log10)” value came to 0.252. For the sequence “ATCAAGACTTGGGTTCTAACCTGTTGCCT (site ATTAAGACTAG)”, the “recombinant barcode read abundance (log10)” value came out at 0.272. Take “ATCACACCTTGGGTTCTAACCTGTTGCCT (site ATCACACCTAG)”: the “recombinant barcode read abundance (log10)” value stood at 0.761. With “ATCACACCTTGGGTTCTAACCTGTTGCCT (site CTCACACCTAG)”, the “recombinant barcode read abundance (log10)” value was determined as 0.102. Consider “ATCACGTCTTGGGTTCTAACCTGTTGCCT (site ATCACGTCTAG)”, for which the “recombinant barcode read abundance (log10)” value amounted to 1.4. With “ATCACGTCTTGGGTTCTAACCTGTTGCCT (site CAGCATCCTCT)”, the “recombinant barcode read abundance (log10)” value came out at 0.0385. The value for “ATCAGTTCTTGGGTTCTAACCTGTTGCTG (site ATCAGTTCTCA)” was 0.074. Under “ATCAGTTCTTGGGTTCTAACCTGTTGCTG (site GATTTCGCTAG)” stands 0.155; under “ATCCAACCTTGGGTTCTAACCTGTTGCCT (site ATCCAACCTAG)”, 1.89. With “ATCCAACCTTGGGTTCTAACCTGTTGCCT (site ATCCACCCTAG)”, the “recombinant barcode read abundance (log10)” value is 0.123. As for “ATCCAACCTTGGGTTCTAACCTGTTGCCT (site ATCCAGCCTAG)”, the “recombinant barcode read abundance (log10)” value amounted to 0.348. For “ATCCAACCTTGGGTTCTAACCTGTTGCCT (site ATCCATCCTAG)”, the “recombinant barcode read abundance (log10)” value came to 0.0128. In the case of “ATCCACCCTTGGGTTCTAACCTGTTGCCT (site ATCCAACCTAG)”, the “recombinant barcode read abundance (log10)” value was 0.15.

With “ATCCACCCTTGGGTTCTAACCTGTTGCCT (site ATCCACCCTAG)”, the “recombinant barcode read abundance (log10)” value was determined as 2.07. Turning to “ATCCACCCTTGGGTTCTAACCTGTTGCCT (site ATCCAGCCTAG)”, the “recombinant barcode read abundance (log10)” value stood at 0.207. Turning to “ATCCACCCTTGGGTTCTAACCTGTTGCCT (site ATCCATCCTAG)”, the “recombinant barcode read abundance (log10)” value was 0.0749.

With “ATCCACCCTTGGGTTCTAACCTGTTGCGG (site ATCCACCCTCC)”, the “recombinant barcode read abundance (log10)” value turned out to be 3.07.

Consider “ATCCACCCTTGGGTTCTAACCTGTTGCGG (site GACCACCCTCC)”, for which the “recombinant barcode read abundance (log10)” value is 0.218. Consider “ATCCATCCTTGGGTTCTAACCTGTTGCCT (site ATCCAACCTAG)”, for which the “recombinant barcode read abundance (log10)” value was determined as 0.00851.

For “ATCCATCCTTGGGTTCTAACCTGTTGCCT (site ATCCACCCTAG)”, the “recombinant barcode read abundance (log10)” value is 0.0821. Consider “ATCCATCCTTGGGTTCTAACCTGTTGCCT (site ATCCAGCCTAG)”, for which the “recombinant barcode read abundance (log10)” value came out at 0.0583. With “ATCCATCCTTGGGTTCTAACCTGTTGCCT (site ATCCATCCTAG)”, the “recombinant barcode read abundance (log10)” value turned out to be 0.969. Take “ATCCCATCTTGGGTTCTAACCTGTTGCCT (site ATACCATCTAG)”: the “recombinant barcode read abundance (log10)” value was determined as 0.383. The value for “ATCCCATCTTGGGTTCTAACCTGTTGCCT (site ATCCCATCTAG)” was 0.619. Regarding “ATCCCATCTTGGGTTCTAACCTGTTGCCT (site ATGCCATCTAG)”, the “recombinant barcode read abundance (log10)” value worked out at 0.0333. As to “ATCCCATCTTGGGTTCTAACCTGTTGCCT (site ATTCCATCTAG)”, the “recombinant barcode read abundance (log10)” value amounted to 0.0512.

For the sequence “ATCCCCTCTTGGGTTCTAACCTGTTGCCT (site ATCCCCTCTAG)”, the “recombinant barcode read abundance (log10)” value is 2.53. Turning to “ATCCCCTCTTGGGTTCTAACCTGTTGCCT (site ATCGCCTCTAG)”, the “recombinant barcode read abundance (log10)” value amounted to 0.031. Take “ATCGAGTCTTGGGTTCTAACCTGTTGCCT (site AACGAGTCTAG)”: the “recombinant barcode read abundance (log10)” value was 0.139. In the case of “ATCGAGTCTTGGGTTCTAACCTGTTGCCT (site ACCGAGTCTAG)”, the “recombinant barcode read abundance (log10)” value came to 1.11. Under “ATCGAGTCTTGGGTTCTAACCTGTTGCCT (site AGCGAGTCTAG)” stands 0.734; under “ATCGAGTCTTGGGTTCTAACCTGTTGCCT (site ATCGAGTCTAG)”, 1.56.

As for “ATCGATGCTTGGGTTCTAACCTGTTGCCT (site ATCGATGCTAG)”, the “recombinant barcode read abundance (log10)” value turned out to be 0.545. In the case of “ATCGATGCTTGGGTTCTAACCTGTTGCCT (site ATCTATTCTAG)”, the “recombinant barcode read abundance (log10)” value came to 0.0828.

Regarding “ATCGCCTCTTGGGTTCTAACCTGTTGCCT (site ATCCCCTCTAG)”, the “recombinant barcode read abundance (log10)” value was 0.328. The value for “ATCGCCTCTTGGGTTCTAACCTGTTGCCT (site ATCGCCTCTAG)” was 0.742; that for “ATCGGAGCTTGGGTTCTAACCTGTTGCGG (site ATCGGAGCTCA)” was 0.135. Consider “ATCGGAGCTTGGGTTCTAACCTGTTGCGG (site ATCGGAGCTCC)”, for which the “recombinant barcode read abundance (log10)” value worked out at 1.7. On to “ATCGGAGCTTGGGTTCTAACCTGTTGCGG (site ATCGGAGCTCG)”, for which the “recombinant barcode read abundance (log10)” value came out at 0.424. Turning to “ATCGGAGCTTGGGTTCTAACCTGTTGCGG (site ATCGGAGCTCT)”, the “recombinant barcode read abundance (log10)” value was found to be 0.592. Under “ATCGTATCTTGGGTTCTAACCTGTTGCGC (site ATCGTATCTGC)” stands 0.068; under “ATCGTATCTTGGGTTCTAACCTGTTGCGC (site GGGCAGGCTAG)”, 0.832; under “ATCTCAACTTGGGTTCTAACCTGTTGCCT (site ACCTTAACTAG)”, 0.0254.

For “ATCTCAACTTGGGTTCTAACCTGTTGCCT (site ATCTCAACTAG)”, the “recombinant barcode read abundance (log10)” value was 0.118.

As to “ATCTTACCTTGGGTTCTAACCTGTTGCCG (site ATCTTACCTCG)”, the “recombinant barcode read abundance (log10)” value was 0.448.

With “ATCTTACCTTGGGTTCTAACCTGTTGCCG (site GTCTTCCCTCG)”, the “recombinant barcode read abundance (log10)” value was found to be 0.11. The value for “ATCTTATCTTGGGTTCTAACCTGTTGCCT (site ATCTTAACTAG)” was 0.0526; that for “ATCTTATCTTGGGTTCTAACCTGTTGCCT (site ATCTTACCTAG)” was 0.262.

Take “ATCTTATCTTGGGTTCTAACCTGTTGCCT (site ATCTTAGCTAG)”: the “recombinant barcode read abundance (log10)” value is 0.0977. On to “ATCTTATCTTGGGTTCTAACCTGTTGCCT (site ATCTTATCTAG)”, for which the “recombinant barcode read abundance (log10)” value was found to be 0.208. Regarding “ATGAACCCTTGGGTTCTAACCTGTTGCGT (site ATGAACCCTAC)”, the “recombinant barcode read abundance (log10)” value was 1.88. “ATGAACCCTTGGGTTCTAACCTGTTGCGT (site TTGAACCCTAC)”: the “recombinant barcode read abundance (log10)” value stood at 0.659.

“ATGAAGCCTTGGGTTCTAACCTGTTGCTT (site ATCAAGCCTAA)”: the “recombinant barcode read abundance (log10)” value came out at 0.0285.
